How the values were obtained:
Format in all cases: binding
[1] = target: T1, bovine serum albumin (BSA) (Bos taurus, UniProt P02769); assay: nano-DSF F350/F330 titration, […] fit; conditions: read-out: Ka [M^-1] (converted)
T1 construct: gene ALB

Casein = target: T2, Casein; assay: nano-DSF F350/F330 titration, […] fit; conditions: 37 °C, phosphate buffer pH 6.8, 1:1 stoichiometry assumed
T2 construct: gene CSN1S1

Ovalbumin (OVA) = target: T3, Ovalbumin (OVA) (Gallus gallus, UniProt P01012); assay: nano-DSF F350/F330 ratio; conditions: 1000 µM; phosphate buffer pH 6.8; 5 µM protein
T3 construct: gene SERPINB14
T3 sequence (P01012 2-386): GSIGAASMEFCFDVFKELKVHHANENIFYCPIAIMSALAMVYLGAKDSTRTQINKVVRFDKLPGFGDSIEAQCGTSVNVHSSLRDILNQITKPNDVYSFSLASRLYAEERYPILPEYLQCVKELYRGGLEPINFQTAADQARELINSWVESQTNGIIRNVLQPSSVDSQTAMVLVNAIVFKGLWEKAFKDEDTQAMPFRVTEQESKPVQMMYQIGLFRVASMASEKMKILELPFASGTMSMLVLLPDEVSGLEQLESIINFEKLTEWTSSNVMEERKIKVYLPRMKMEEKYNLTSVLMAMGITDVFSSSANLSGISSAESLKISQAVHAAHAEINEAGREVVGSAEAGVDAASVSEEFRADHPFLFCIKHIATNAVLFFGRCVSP
Source text: nano-DSF F350/F330 ratio on Ovalbumin (OVA)

[2] = target: T1, bovine serum albumin (BSA); assay: nano-DSF F350/F330 ratio; conditions: 1000 µM; phosphate buffer pH 6.8; 5 µM protein
Source text: nano-DSF F350/F330 ratio on bovine serum albumin (BSA)

T1 sequence (P02769 25-607): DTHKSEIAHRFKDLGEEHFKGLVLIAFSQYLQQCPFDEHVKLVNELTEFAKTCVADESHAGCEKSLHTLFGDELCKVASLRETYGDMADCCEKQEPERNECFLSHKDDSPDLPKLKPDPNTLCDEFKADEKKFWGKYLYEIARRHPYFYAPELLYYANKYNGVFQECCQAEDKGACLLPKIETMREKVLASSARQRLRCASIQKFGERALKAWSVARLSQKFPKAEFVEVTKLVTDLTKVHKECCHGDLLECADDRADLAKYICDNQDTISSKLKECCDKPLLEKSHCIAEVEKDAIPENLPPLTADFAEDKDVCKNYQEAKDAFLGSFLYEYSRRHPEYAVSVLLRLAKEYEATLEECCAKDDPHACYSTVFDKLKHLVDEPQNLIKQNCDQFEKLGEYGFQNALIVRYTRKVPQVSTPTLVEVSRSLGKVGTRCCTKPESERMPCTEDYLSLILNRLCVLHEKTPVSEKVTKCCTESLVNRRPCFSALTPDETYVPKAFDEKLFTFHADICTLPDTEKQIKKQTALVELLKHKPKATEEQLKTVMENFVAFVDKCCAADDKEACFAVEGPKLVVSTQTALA

Row | SMILES | Kd [1] [µM] | Ka [M^-1] (Casein) | F350/F330 fluorescence ratio (Ovalbumin (OVA)) | further results
1 | O=C(/C=C/c1ccc(O)c(O)c1)O[C@@H]1C[C@](O)(C(=O)O)C[C@@H](O)[C@H]1O [5-CQA] | – | 21 450 | 1.02 | –
2 | O=C(O[C@@H]1Cc2c(O)cc(O)cc2O[C@@H]1c1cc(O)c(O)c(O)c1)c1cc(O)c(O)c(O)c1 [EGCG] | – | – | 1.25 | F350/F330 fluorescence ratio [2]: 1.57
3 | Oc1cc(O)c2c(c1)O[C@H](c1ccc(O)c(O)c1)[C@H](O)C2 [Epicatechin] | – | – | – | Ka (Casein; µM column is the reciprocal of Ka, the M^-1 cell is misprinted (7 1616)): 139.6 µM
4 | O=C(OC[C@H]1O[C@H](OC(=O)c2cc(O)c(O)c(O)c2)[C@H](OC(=O)c2cc(O)c(O)c(O)c2)[C@@H](OC(=O)c2cc(O)c(O)c(O)c2)[C@@H]1OC(=O)c1cc(O)c(O)c(O)c1)c1cc(O)c(O)c(O)c1 [α-PGG] | 89.3 | – | – | –

Now from value to molecule, other results behind:

Row | Kd [1] [µM] | Ka [M^-1] (Casein) | F350/F330 fluorescence ratio (Ovalbumin (OVA)) | SMILES | further results
5 | 18 | 41 271 | – | O=C(/C=C/c1ccc(O)c(O)c1)O[C@H]1[C@H](O)C[C@](O)(C(=O)O)C[C@H]1OC(=O)/C=C/c1ccc(O)c(O)c1 [3,4-diCQA] | –
6 | 118 | – | – | O=C(OC[C@H]1O[C@@H](OC(=O)c2cc(O)c(O)c(O)c2)[C@H](OC(=O)c2cc(O)c(O)c(O)c2)[C@@H](OC(=O)c2cc(O)c(O)c(O)c2)[C@@H]1OC(=O)c1cc(O)c(O)c(O)c1)c1cc(O)c(O)c(O)c1 [β-PGG] | –

Source: PMC11858516, “Promiscuity in Polyphenol–Protein Interactions—Monitoring Protein Conformational Change upon Polyphenol–Protein Binding by Nano-Differential Fluorimetry (Nano-DSF)” (Molecules, 2025)
